# Data from patent publication US6545032B1, “Synthesis of [3,5,7]-H-imidazo[1,5-a] imidazol-2(3H)-one compounds” (Torrey Pines Institute for Molecular Studies, priority 1999, dated 2003).
# Key:
# kappa opiate receptor = biological target: T1, kappa opiate receptor (Cavia porcellus, UniProt P41144); assay: Inhibition of tritiated U69,593 binding to the kappa opiate receptor in guinea pig brain homogenates; set-up: Mean: unit not given beside the values; conditions: 3 nm tritiated U69,593, guinea pig brain membranes; for % Bound: [3H]U69,593 bound; for % Inhibition: inhibition of [3H]U69,593 binding; for Mean: mean bound radioactivity of [3H]U69,593, 2.5 hours 25° C.; for Minus NSB: mean minus non-specific binding
# T1 construct: guinea pig cortices and cerebella were homogenized in 40 mL of Buffer A; from tissue; host or cells: guinea pig cortices and cerebella, crude membrane suspension
# T1 sequence (P41144 whole entry): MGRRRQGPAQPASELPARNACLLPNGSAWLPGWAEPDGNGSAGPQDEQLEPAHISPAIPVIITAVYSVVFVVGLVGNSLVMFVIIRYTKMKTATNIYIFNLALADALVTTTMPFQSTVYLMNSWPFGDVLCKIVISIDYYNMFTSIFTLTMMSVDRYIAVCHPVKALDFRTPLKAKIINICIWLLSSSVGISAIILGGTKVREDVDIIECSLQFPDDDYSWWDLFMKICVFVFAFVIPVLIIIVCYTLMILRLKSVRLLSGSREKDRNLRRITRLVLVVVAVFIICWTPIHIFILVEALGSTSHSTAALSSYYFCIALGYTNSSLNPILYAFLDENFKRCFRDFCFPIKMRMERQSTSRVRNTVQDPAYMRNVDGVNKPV
# Method: The above-prepared library of individual compounds was screened for the ability to inhibit the binding of tritiated Compound U69,593 that is known to bind specifically to the kappa opiate receptor present in guinea pig brain homogenates following literature procedures. [Dooley et al., J. Biol. Chem., 273(30) 18848-18856 (1998)]
# Briefly, guinea pig cortices and cerebella were homogenized in 40 mL of Buffer A [50 mM Tris-HCl, pH 7.4] at 4° C. Homogenates were centrifuged [Beckman® J2-HC, 35, 300×g] for 10 minutes. The pellets were resuspended in fresh buffer and incubated at 37° C. for 40 minutes. Following incubation, the suspensions were centrifuged as before, the resulting pellets resuspended in 100 volumes of Tris buffer, and the suspensions combined. Membrane suspensions were prepared and used on the same day. Protein content of the crude homogenates was determined by the method of Bradford, Anal. Biochem., 72:248-252 (1976).
# Each assay tube contained 0.5 mL of membrane suspension, 3 nm of tritiated Compound U69,593 [(5a,7a,8b)-(−)-N-methyl-N-(7-(1-pyrrolidinyl)-1-oxaspiro(4,5)dec-8-yl)-benzeneacetamide; Lahti et al., European J. Pharmacol., 109:281-284(199-85)] in a total volume of 0.65 mL. Assay tubes were incubated for 2.5 hours a 25° C. The assay was then filtered through GF-B filters on a Tomec™ harvester (Orange, Conn.). The filters were subsequently washed with 6 mL of 50 mM Tris-HC1, pH 7.4 at 4° C. Bound radioactivity was counted on a Wallace™ Beta-plate Liquid Scintillation Counter (Piscataway, N.J.). Unlabeled U50, 488 [(trans-(dl)-3,4-dichloro-N-methyl-N-[2-(1-pyrrolidinyl)cyclohexyl]-benzeneacetamide) methane sulfonate hydrate; Lahti et al., Life Sci., 31:2257-xx(1982) and Von Voightlander et al., J. Pharmacol. Exp. Ther., 224:7 (1983)] was used as a competitive inhibitor to generate a standard curve and determine nonspecific binding. The results of these assays are shown in the table, below, wherein the “R” groups are as discussed for Example 1.
# mu opiate receptor = biological target: T2, mu opiate receptor (Rattus norvegicus, UniProt P33535); assay: Inhibition of [3H]DAMGO binding to the mu opiate receptor in rat brain homogenates; set-up: Mean: unit not given beside the values; conditions: 0.08 mg of compound per milliliter, 7 nM 3H-labeled DAMGO, rat brain membranes; for % Bound: [3H]DAMGO bound; for Mean: mean bound radioactivity of [3H]DAMGO; for Minus NSB*: mean minus non-specific binding; for % Inhibition: percent inhibition of DAMGO binding
# T2 construct: from tissue; host or cells: rat brain membranes/homogenate
# T2 sequence (P33535 whole entry): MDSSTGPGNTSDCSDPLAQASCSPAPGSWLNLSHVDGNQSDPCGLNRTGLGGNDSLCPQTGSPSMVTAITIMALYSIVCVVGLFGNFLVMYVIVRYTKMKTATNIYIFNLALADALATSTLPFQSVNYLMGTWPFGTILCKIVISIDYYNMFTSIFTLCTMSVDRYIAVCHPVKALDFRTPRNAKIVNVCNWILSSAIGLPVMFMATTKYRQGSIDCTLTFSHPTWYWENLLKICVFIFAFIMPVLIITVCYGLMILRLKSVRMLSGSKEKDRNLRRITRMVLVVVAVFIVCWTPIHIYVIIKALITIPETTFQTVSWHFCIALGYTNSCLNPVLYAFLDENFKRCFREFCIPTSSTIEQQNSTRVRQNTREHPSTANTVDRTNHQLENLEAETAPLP
# Method: The previously prepared [3,5,7]-1H-imidazo[1,5-a]-imidazol-2(3H)-one library of individual compounds was screened for the ability to inhibit the binding of [^3H] [D-Ala^2,MePhe^4,Gly^5-ol]enkephalin (DAMGO) that is known to bind specifically to the mu opiate receptor present in rat brain homogenates following literature procedures. [Dooley et al., Science, 266:2019(1994); U.S. Pat. No. 5,763,193.]
# Preparation of rat brain membranes and the receptor binding assay were carried out as described in Dooley et al., Life Sci., 52:1509(1993). Each tube in the screening assay contained 0.08 mg of compound mixture per milliliter, 0.5 mL of membrane suspension (0.1 mg of protein), 7 nM ^3H-labeled DAMGO [specific activity 36 Ci/mmol, obtained from the National Institute on Drug Abuse (NIDA) repository through Chiron Mimotopes PeptideSystems (San Diego, Calif.) and […] of peptide mixture in 50 mM Tris-HCl buffer (pH 7.4). The final volume was 0.65 mL. The results of these screenings are shown in the table, below, wherein the “R” groups are as discussed for Example 1. The results are reported as percent inhibition of DAMGO binding.
SMILES,% Bound (kappa opiate receptor),% Inhibition (kappa opiate receptor),Mean (kappa opiate receptor),Minus NSB (kappa opiate receptor),% Bound (mu opiate receptor),Mean (mu opiate receptor),Minus NSB* (mu opiate receptor),% Inhibition (mu opiate receptor)
Cc1nc(C(C)C)c2n1C(Cc1ccccc1)C(=O)N2 (stereo not shown) [Pool 30],74.884%,25.116%,1682.8,775.80,65%,929.9,621.90,35%
Cc1ncc2n1C(C(C)C)C(=O)N2 (stereo not shown) [Pool 34],79.117%,20.883%,1726.65,819.65,68%,956.4,648.40,32%
Cc1nc(C)n2c1NC(=O)C2C(C)C (stereo not shown) [Pool 35],77.693%,22.307%,1711.9,804.90,47%,753.5,445.50,53%
Cc1nc(C(C)C)c2n1C(C(C)C)C(=O)N2 (stereo not shown) [Pool 36],84.976%,15.024%,1787.35,880.35,66%,940.6,632.60,34%
Cc1nc(CC(C)C)c2n1C(C(C)C)C(=O)N2 (stereo not shown) [Pool 37],62.973%,37.027%,1559.4,652.40,66%,932.9,624.90,34%
CCC(C)c1nc(C)n2c1NC(=O)C2C(C)C (stereo not shown) [Pool 38],68.639%,31.361%,1618.1,711.10,40%,687.75,379.75,60%
Cc1nc(CCCCN)c2n1C(C(C)C)C(=O)N2 (stereo not shown) [Pool 41],51.853%,48.147%,1444.2,537.20,58%,858.1,550.10,42%
Cc1nc(CCCNC(=N)N)c2n1C(C(C)C)C(=O)N2 (stereo not shown) [Pool 42],48.200%,51.800%,1406.35,499.35,29%,581.65,273.65,71%
CCCCc1nc(C)n2c1NC(=O)C2C(C)C (stereo not shown) [Pool 44],110.299%,−10.299%,2049.7,1142.70,67%,947.55,639.55,33%
CCCc1nc(C)n2c1NC(=O)C2C(C)C (stereo not shown) [Pool 45],85.275%,14.725%,1790.45,883.45,62%,902.55,594.55,38%
Cc1nc(CC2CCCCC2)c2n1C(C(C)C)C(=O)N2 (stereo not shown) [Pool 46],121.815%,−21.815%,2169,1262.00,60%,881.4,573.40,40%
Cc1nc(Cc2ccccc2)c2n1C(C(C)C)C(=O)N2 (stereo not shown) [Pool 47],104.469%,−4.469%,1989.3,1082.30,62%,897.8,589.80,38%
Cc1nc(Cc2ccc(O)cc2)c2n1C(C(C)C)C(=O)N2 (stereo not shown) [Pool 48],84.653%,15.347%,1784,877.00,44%,728.5,420.50,56%
Cc1nc(C)n2c1NC(=O)C2C(C)C (stereo not shown) [Pool 51],71.313%,28.687%,1645.8,738.80,62%,902.75,594.75,38%
Cc1nc(C(C)C)c2n1C(C(C)C)C(=O)N2 (stereo not shown) [Pool 52],74.744%,25.256%,1681.35,774.35,68%,959.85,651.85,32%
Cc1nc(CC(C)C)c2n1C(C(C)C)C(=O)N2 (stereo not shown) [Pool 53],106.356%,−6.356%,2008.85,1101.85,71%,988.95,680.95,29%
CCC(C)c1nc(C)n2c1NC(=O)C2C(C)C (stereo not shown) [Pool 54],100.410%,−0.410%,1947.25,1040.25,53%,815.2,507.20,47%
CC(C)Cc1nc(C(C)C)c2n1C(C(C)C)C(=O)N2 (stereo not shown) [Pool 125],62.384%,37.616%,1553.3,646.30,48%,763.7,455.70,52%
CCC(C)Cc1nc(C(C)C)c2n1C(C(C)C)C(=O)N2 (stereo not shown) [Pool 126],73.311%,26.689%,1666.5,759.50,64%,918.7,610.70,36%
CC(C)CCc1nc(C(C)C)c2n1C(C(C)C)C(=O)N2 (stereo not shown) [Pool 127],66.178%,33.822%,1592.6,685.60,63%,909.6,601.60,37%
CC(C)c1nc(C(C)(C)C)n2c1NC(=O)C2C(C)C (stereo not shown) [Pool 135],69.170%,30.830%,1623.6,716.60,65%,931.85,623.85,35%
CC(C)c1nc(CC(C)(C)C)n2c1NC(=O)C2C(C)C (stereo not shown) [Pool 136],80.589%,19.411%,1741.9,834.90,72%,991,683.00,28%
CC(C)c1nc(C2CCCCC2)n2c1NC(=O)C2C(C)C (stereo not shown) [Pool 137],129.619%,−29.619%,2249.85,1342.85,66%,933.35,625.35,34%
